Assay results reported in patent US4010264A, “7-[3-Substituted isoxazol-5-yl]-acetamido-cephalosporanic acids and their anti-bacterial use” (Koninklijke Nederlandsche Gist-en Spiritusfabriek N.V., priority 1970, dated 1977).
Converted amounts (≈) assume the structure as drawn. Structures can show the parent of a compound that is named as a salt. Where two headings read alike, the source gives them in different places.

Legend:
[1] = system: Bacillus subtilis ATCC 6633; experiment: MIC, agar serial dilution test; type: cell-based
[2] = system: Staphylococcus aureus A55; experiment: MIC, agar serial dilution test; type: cell-based
[3] = system: Staphylococcus aureus A321; experiment: MIC, agar serial dilution test; type: cell-based
[4] = system: Streptococcus haemolyticus A266; experiment: MIC, agar serial dilution test; type: cell-based
[5] = system: Streptococcus faecalis L 80; experiment: MIC, agar serial dilution test; type: cell-based; conditions: Enterococcus faecalis
[6] = system: Diplococcus pneumoniae L 54; experiment: MIC, agar serial dilution test; type: cell-based; conditions: Streptococcus pneumoniae
Brucella melitensis A488 = experiment: microbe, parasite or virus in culture; type: cell-based; conditions: A488, 24 h
[7] = system: Pasteurella multocida A723; experiment: MIC, agar serial dilution test; type: cell-based
[8] = system: Klebsiella pneumoniae A809; experiment: MIC, agar serial dilution test; type: cell-based
[9] = system: Staphylococcus aureus A355 (penicillinase-producing); experiment: MIC, agar serial dilution test; conditions: 24 h
[10] = system: Staphylococcus aureus L160a (penicillinase-producing); experiment: MIC, agar serial dilution test; conditions: 24 h
[11] = Bacillus subtilis, ATCC6633, 24 h
[12] = Staphylococcus aureus, A55, 24 h
[13] = Staphylococcus aureus, A321, 24 h
[14] = Pasteurella multocida, A723, 24 h
[15] = Klebsiella pneumoniae, A809, 24 h
[16] = ATCC6633, Bacillus subtilis ATCC 6633, 24 hours at 37° C, read-out: MIC
[17] = Staphylococcus aureus A55, 24 hours at 37° C, read-out: MIC
[18] = Staphylococcus aureus A321, 24 hours at 37° C, read-out: MIC
[19] = Streptococcus haemolyticus A266, 24 hours at 37° C, read-out: MIC
[20] = L80, Streptococcus faecalis L 80, 24 hours at 37° C, read-out: MIC
[21] = L54, Diplococcus pneumoniae L 54, 24 hours at 37° C, read-out: MIC
[22] = Pasteurella multocida A723, 24 hours at 37° C, read-out: MIC
[23] = Klebsiella pneumoniae A809, 24 hours at 37° C, read-out: MIC

Structure (SMILES)	MIC [1, 11] [µg/mL]	MIC [2, 12] [µg/mL]	MIC [3, 13] [µg/mL]	MIC ([4]; Streptococcus, A266, 24 h) [µg/mL]	MIC ([5]; L80, 24 h) [µg/mL]	MIC ([6]; L54, 24 h) [µg/mL]	MIC (Brucella melitensis A488) [µg/mL]	MIC [7, 14] [µg/mL]	MIC [8, 15] [µg/mL]	MIC [9] [µg/mL]	MIC [10] [µg/mL]	MIC [1, 16] [µg/mL]	MIC [2, 17] [µg/mL]	MIC [3, 18] [µg/mL]	MIC [4, 19] [µg/mL]	MIC [5, 20] [µg/mL]	MIC [6, 21] [µg/mL]	MIC [7, 22] [µg/mL]	MIC [8, 23] [µg/mL]
CC1=C(C(=O)O)N2C(=O)[C@@H](NC(=O)[C@H](N)c3ccccc3)[C@H]2SC1 [Cephalexine, Cephalexin, reference compound]	0.5 (≈ 1.44 µM)	3 (≈ 8.64 µM)	1.5 (≈ 4.32 µM)	0.25 (≈ 0.72 µM)	100 (≈ 288 µM)	3 (≈ 8.64 µM)	6 (≈ 17.3 µM)	3 (≈ 8.64 µM)	3 (≈ 8.64 µM)	12.5 (≈ 36 µM)	12.5 (≈ 36 µM)	–	–	–	–	–	–	–	–
O=C(Cc1cccs1)N[C@@H]1C(=O)N2C(C(=O)[O-])=C(C[n+]3ccccc3)CS[C@H]12 [Cephaloridine, Cephaloridin, reference compound]	0.06 (≈ 0.144 µM)	0.06 (≈ 0.144 µM)	0.06 (≈ 0.144 µM)	0.015 (≈ 0.0361 µM)	12.5 (≈ 30.1 µM)	0.015 (≈ 0.0361 µM)	3 (≈ 7.22 µM)	1 (≈ 2.41 µM)	3 (≈ 7.22 µM)	0.12 (≈ 0.289 µM)	0.06 (≈ 0.144 µM)	–	–	–	–	–	–	–	–
Cc1onc(-c2ccccc2Cl)c1C(=O)N[C@@H]1C(=O)N2[C@@H]1SC(C)(C)[C@@H]2C(=O)O [Cloxazilline, Cloxacillin, reference compound]	–	–	–	–	–	–	100 (≈ 229 µM)	–	–	0.5 (≈ 1.15 µM)	1 (≈ 2.29 µM)	0.25 (≈ 0.574 µM)	0.12 (≈ 0.275 µM)	0.06 (≈ 0.138 µM)	0.25 (≈ 0.574 µM)	25 (≈ 57.4 µM)	1.5 (≈ 3.44 µM)	6 (≈ 13.8 µM)	6 (≈ 13.8 µM)
Cc1c(-c2c(Cl)cccc2Cl)noc1CC(=O)NC1C(=O)N2C1SC(C)(C)C2C(=O)O (stereo not drawn) [Example X, Sodium salt of 6-{[3-(2,6-dichloro)phenyl-4-methyl-isoxazol-5-yl]acetamido}penicillanic acid]	–	–	–	–	–	–	3	–	–	3	0.5	0.005	0.03	0.03	0.006	0.25	0.02	3	> 100
CC1(C)SC2C(NC(=O)Cc3onc(-c4c(Cl)cccc4Cl)c3C#N)C(=O)N2C1C(=O)O (stereo not drawn) [Example XV, Sodium salt of 6-{[3-(2,6-dichloro)phenyl-4-cyano-isoxazol-5-yl]acetamido}penicillanic acid]	–	–	–	–	–	–	6	–	–	12.5	12.5	0.25	0.5	1	0.06	0.5	0.03	12.5	> 100
CC1(C)SC2C(NC(=O)Cc3cc(C45CC6CC(CC(C6)C4)C5)no3)C(=O)N2C1C(=O)O (stereo not drawn) [Example XVI, Sodium salt of 6-{[3-(1)adamantyl-isoxazol-5-yl]acetamido} penicillanic acid]	–	–	–	–	–	–	3	–	–	12.5	12.5	0.03	0.5	0.03	< 0.015	0.25	0.06	6	> 100
CC1(C)SC2C(NC(=O)C(NC(=O)OCc3ccc([N+](=O)[O-])cc3)c3cc(-c4c(Cl)cccc4Cl)no3)C(=O)N2C1C(=O)O (stereo not drawn) [Example XVII, 6-{-α-p-nitro-benzyloxycarbonylamino-[3-(2,6-dichloro)phenylisoxazol-5-yl]acetamido}penicillanic acid]	–	–	–	–	–	–	25 (≈ 37.6 µM)	–	–	12.5 (≈ 18.8 µM)	6 (≈ 9.03 µM)	0.5 (≈ 0.752 µM)	1 (≈ 1.5 µM)	1 (≈ 1.5 µM)	0.06 (≈ 0.0903 µM)	3 (≈ 4.51 µM)	0.5 (≈ 0.752 µM)	50 (≈ 75.2 µM)	> 100
CC1(C)SC2C(NC(=O)C(N)c3cc(-c4c(Cl)cccc4Cl)no3)C(=O)N2C1C(=O)O (stereo not drawn) [Example XVIII, 6-{α-amino-[3-(2,6-dichloro)phenyl-isoxazol-5-yl]acetamido} penicillanic acid]	–	–	–	–	–	–	0.5 (≈ 1.03 µM)	–	–	12.5 (≈ 25.8 µM)	12.5 (≈ 25.8 µM)	0.06 (≈ 0.124 µM)	0.25 (≈ 0.515 µM)	0.12 (≈ 0.247 µM)	< 0.015	1 (≈ 2.06 µM)	0.12 (≈ 0.247 µM)	6 (≈ 12.4 µM)	> 100
CC1(C)SC2C(NC(=O)C(C(N)=O)c3cc(-c4c(Cl)cccc4Cl)no3)C(=O)N2C1C(=O)O (stereo not drawn) [Example XX, 6-{α-carbamyl-[3-(2,6-dichloro)phenyl-isoxazol-5-yl]acetamido} penicillanic acid]	–	–	–	–	–	–	3 (≈ 5.84 µM)	–	–	3 (≈ 5.84 µM)	3 (≈ 5.84 µM)	0.25 (≈ 0.487 µM)	0.25 (≈ 0.487 µM)	0.25 (≈ 0.487 µM)	0.03 (≈ 0.0584 µM)	0.5 (≈ 0.974 µM)	0.06 (≈ 0.117 µM)	6 (≈ 11.7 µM)	> 100
Cc1cc(CC(=O)NC2C(=O)N3[C@@H]2SC(C)(C)[C@@H]3C(=O)O)on1 (stereo partly drawn) [Example XXI, 6-{[3-methyl-isoxazol-5-yl]acetamido}penicillanic acid]	–	–	–	–	–	–	3 (≈ 8.84 µM)	–	–	6 (≈ 17.7 µM)	3 (≈ 8.84 µM)	0.06 (≈ 0.177 µM)	0.5 (≈ 1.47 µM)	0.25 (≈ 0.737 µM)	0.03 (≈ 0.0884 µM)	3 (≈ 8.84 µM)	1.5 (≈ 4.42 µM)	1.5 (≈ 4.42 µM)	> 100
CCOc1ccc2ccccc2c1C(=O)N[C@@H]1C(=O)N2[C@@H]1SC(C)(C)[C@@H]2C(=O)O [Nafcilline, Nafcillin, reference compound]	–	–	–	–	–	–	6 (≈ 14.5 µM)	–	–	1 (≈ 2.41 µM)	0.5 (≈ 1.21 µM)	0.5 (≈ 1.21 µM)	0.12 (≈ 0.29 µM)	0.25 (≈ 0.603 µM)	0.015 (≈ 0.0362 µM)	10 (≈ 24.1 µM)	0.06 (≈ 0.145 µM)	12.5 (≈ 30.2 µM)	12.5 (≈ 30.2 µM)
Cc1cc(C)c(-c2cc(CC(=O)NC3C(=O)N4C3SC(C)(C)C4C(=O)O)on2)c(C)c1 (stereo not drawn) [VI, Sodium salt of 6-{[3-(2,4,6-trimethyl)phenylisoxazol-5-yl]acetamido}penicillanic acid]	–	–	–	–	–	–	3	–	–	3	0.5	0.03	0.06	0.06	0.012	0.25	0.03	12.5	100
CC1=C(C(=O)O)N2C(=O)C(NC(=O)Cc3onc(-c4c(Cl)cccc4Cl)c3C)C2SC1 (stereo not drawn) [VIII, 7-{[3-(2,6-dichloro)phenyl-4-methyl-isoxazol-5-yl]acetamidodesacetoxycephalosporanic}acid]	–	–	–	–	–	–	12.5 (≈ 25.9 µM)	–	–	3 (≈ 6.22 µM)	3 (≈ 6.22 µM)	0.25 (≈ 0.518 µM)	1.5 (≈ 3.11 µM)	0.5 (≈ 1.04 µM)	0.25 (≈ 0.518 µM)	100 (≈ 207 µM)	1 (≈ 2.07 µM)	100 (≈ 207 µM)	> 100
CC(=O)OCC1=C(C(=O)O)N2C(=O)C(NC(=O)Cc3cc(C(C)(C)C)no3)C2SC1 (stereo not drawn) [XXXIV, sodium 7-[3-(t-butyl)isoxazole-5-ylacetamido]-3-acetoxymethyl 3-cephem-4-carboxylate]	–	–	–	–	–	–	–	–	–	1.5	–	0.75	–	1.5	–	12.5	0.25	3	12.5
